{
  "source": "paper PMC5111741",
  "about": "(The European Journal of Neuroscience, 2016)",
  "biological_target": "T1, rat prestin labelled with GFP (Rattus norvegicus, UniProt Q9EPH0)",
  "T1 sequence (Q9EPH0 1-744)": "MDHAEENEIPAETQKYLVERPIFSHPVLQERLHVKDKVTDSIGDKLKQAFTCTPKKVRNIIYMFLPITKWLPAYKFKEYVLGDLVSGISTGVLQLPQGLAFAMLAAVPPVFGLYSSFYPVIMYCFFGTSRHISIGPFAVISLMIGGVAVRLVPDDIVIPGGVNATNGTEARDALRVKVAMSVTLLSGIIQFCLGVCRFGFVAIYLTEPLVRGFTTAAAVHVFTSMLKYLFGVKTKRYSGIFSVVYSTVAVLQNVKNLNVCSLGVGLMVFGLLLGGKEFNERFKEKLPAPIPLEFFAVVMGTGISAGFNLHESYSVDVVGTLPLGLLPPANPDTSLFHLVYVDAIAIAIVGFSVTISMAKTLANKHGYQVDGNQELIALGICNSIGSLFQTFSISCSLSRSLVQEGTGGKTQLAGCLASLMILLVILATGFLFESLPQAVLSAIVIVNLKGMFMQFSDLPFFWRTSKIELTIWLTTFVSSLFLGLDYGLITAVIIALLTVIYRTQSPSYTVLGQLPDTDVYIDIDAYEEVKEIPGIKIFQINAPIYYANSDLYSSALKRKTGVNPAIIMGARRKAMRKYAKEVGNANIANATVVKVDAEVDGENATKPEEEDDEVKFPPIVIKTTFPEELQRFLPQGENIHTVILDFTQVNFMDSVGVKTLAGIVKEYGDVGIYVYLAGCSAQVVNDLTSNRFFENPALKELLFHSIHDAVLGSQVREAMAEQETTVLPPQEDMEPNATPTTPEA",
  "experiment": "whole-cell patch clamp of transfected HEK […] cells, nonlinear capacitance",
  "type": "cell-based",
  "details": "500 μM extracellular 9-AC; intracellular 135 mM CsCl; pH 7.2; 21.5 °C",
  "data": [
    {"compound": "O=C(O)c1c2ccccc2cc2ccccc12", "note": "[9‐anthracenecarboxylic acid]", "values": [
      {"measurement": "Q max reduction at 500 μM", "result": "59 ± 19", "unit": "%"}
    ]}
  ]
}
